Our source for the IC50 values is patent publication US10913738B2 (BRISTOL-MYERS SQUIBB COMPANY, priority 2017, dated 2021).

Read-outs that look alike come from different tables or passages of the source.

Test [1] has as its target T1, His-GST-TVMV-hRIPK1(1-324) (Homo sapiens, UniProt Q13546).
T1 construct: The coding region of human RIPK1(1-324) flanked by NdeI site at 5′ end; made in house; host or cells: Spodoptera frugiperda (Sf9) insect cells, baculovirus
T1 sequence (Q13546 1-324): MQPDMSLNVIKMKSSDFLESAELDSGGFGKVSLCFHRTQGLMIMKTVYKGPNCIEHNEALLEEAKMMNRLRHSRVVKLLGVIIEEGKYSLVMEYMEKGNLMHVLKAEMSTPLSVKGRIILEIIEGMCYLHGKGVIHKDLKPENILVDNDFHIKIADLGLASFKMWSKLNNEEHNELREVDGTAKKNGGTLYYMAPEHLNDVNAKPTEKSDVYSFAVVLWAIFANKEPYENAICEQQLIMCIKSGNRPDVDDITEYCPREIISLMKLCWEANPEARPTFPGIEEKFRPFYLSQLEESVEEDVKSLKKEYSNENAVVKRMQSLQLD
As to the kind of experiment: RIPK1 HTRF Binding Assay. For orientation: Time-resolved FRET reads energy transfer from a long-lived donor to a nearby acceptor.

Test [2] deals with MLKL phosphorylation in HT29-L23 human colorectal adenocarcinoma cells. Nature of the test: MLKL Phosphorylation High-Content Assay. In kind it is cell-based. Particulars: Homo sapiens. The procedure, abridged: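 Cells incubated six hours at 37° C., then phospho-MLKL (S358) immunostained overnight at 4° C. and imaged by high-content microscopy. Phosphorylation quantified as mean circ-ring average intensity ratio; IC50 and Ymax from 4-parameter logistic fits.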

Setting [3] is: x marks IC50 class <20 nM, read-out: RIPK1 HTRF binding <20 nM.
[4] abbreviates: x marks IC50 class 20-200 nM, read-out: pMLKL cell activity 20-200 nM.
The mark [5] stands for this setting: x marks IC50 class 20-200 nM, read-out: RIPK1 HTRF binding 20-200 nM.
[6] abbreviates: x marks IC50 class >200 nM, read-out: pMLKL cell activity >200 nM.
The mark [7] stands for this setting: x marks IC50 class >200 nM, read-out: RIPK1 HTRF binding >200 nM.

`Cc1cnc(-c2ccn3nc(N)nc3c2)cc1C(=O)NCC[C@@H](O)c1ccc(Cl)cc1` [Example 395, (R)-2-(2-amino-[1,2,4]triazolo[1,5-a]pyridin-7-yl)-N-(3-(4-chlorophenyl)-3-hydroxypropyl)-5-methylisonicotinamide]: the IC50 is below 20 nM in test [1] (setting [3]) and 20 to 200 nM in test [2] (setting [4]).
As to `Cc1cnc(-c2ccn3nc(N)nc3c2)cc1C(=O)NCc1cc(C(F)(F)F)ccc1F` [Example 398, 2-(2-amino-[1,2,4]triazolo[1,5-a]pyridin-7-yl)-N-(2-fluoro-5-(trifluoromethyl)benzyl)-5-methylisonicotinamide], the IC50 in test [1] (setting [5]) and in test [2] (setting [4]) was 20 to 200 nM each time.
For the compound `Cc1cnc(C(=O)NCc2cc(OC(F)(F)F)ccc2F)cc1-c1ccn2nc(N)nc2c1` [Example 399, 4-(2-amino-[1,2,4]triazolo[1,5-a]pyridin-7-yl)-N-(2-fluoro-5-(trifluoromethoxy)benzyl)-5-methylpicolinamide], the IC50 in test [1] (setting [5]) and in test [2] (setting [4]) was 20 to 200 nM each time.
In the case of `Cc1cnc(C(=O)NCCC(C)c2ccccc2)cc1-c1ccn2nc(N)nc2c1` (stereo not shown) [Example 400, 4-(2-amino-[1,2,4]triazolo[1,5-a]pyridin-7-yl)-5-methyl-N-(3-phenylbutyl)picolinamide], the IC50 in test [1] (setting [3]) is below 20 nM; in test [2] (setting [4]), 20 to 200 nM.
Taken in the same sequence, the figures for `Cc1ccc(-c2ccn3nc(N)nc3c2)nc1C(=O)NCC[C@H](O)c1ccc(Cl)cc1` [Example 401, (S)-6-(2-amino-[1,2,4]triazolo[1,5-a]pyridin-7-yl)-N-(3-(4-chlorophenyl)-3-hydroxypropyl)-3-methylpicolinamide] were below 20 nM and 20 to 200 nM.
Consider `Cc1ccc(-c2ccn3nc(N)nc3c2)nc1C(=O)NCC[C@@H](O)c1ccc(Cl)cc1` [Example 402, (R)-6-(2-amino-[1,2,4]triazolo[1,5-a]pyridin-7-yl)-N-(3-(4-chlorophenyl)-3-hydroxypropyl)-3-methylpicolinamide], for which the IC50 in test [1] (setting [5]) and in test [2] (setting [4]) was 20 to 200 nM in each case.
On to `Cc1ccc(-c2ccn3nc(N)nc3c2)nc1C(=O)N[C@H](C)c1cc(OC(F)(F)F)ccc1F` [Example 403, (R)-6-(2-amino-[1,2,4]triazolo[1,5-a]pyridin-7-yl)-N-(1-(2-fluoro-5-(trifluoromethoxy)phenyl)ethyl)-3-methylpicolinamide], for which the values for the IC50 in test [1] (setting [3]) and in test [2] (setting [4]) were below 20 nM and 20 to 200 nM, respectively.
On to `Cc1ccc(-c2ccn3nc(N)nc3c2)nc1C(=O)NCCC(C)c1ccccc1` (stereo not shown) [Example 404, 6-(2-amino-[1,2,4]triazolo[1,5-a]pyridin-7-yl)-3-methyl-N-(3-phenylbutyl)picolinamide], for which the IC50 in test [1] (setting [5]) and in test [2] (setting [4]) was 20 to 200 nM each time.
In the case of `Cc1ccc(-c2ccn3nc(N)nc3c2)nc1C(=O)NCc1cc(OC(F)(F)F)ccc1F` [Example 405, 6-(2-amino-[1,2,4]triazolo[1,5-a]pyridin-7-yl)-N-(2-fluoro-5-(trifluoromethoxy)benzyl)-3-methylpicolinamide], the IC50 in test [1] (setting [5]) is 20 to 200 nM; in test [2] (setting [6]), above 200 nM.
In the case of `COc1ccc(-c2ccn3nc(N)nc3c2)nc1C(=O)N[C@H](C)c1cc(OC(F)(F)F)ccc1F` [Example 406, (R)-6-(2-amino-[1,2,4]triazolo[1,5-a]pyridin-7-yl)-N-(1-(2-fluoro-5-(trifluoromethoxy)phenyl)ethyl)-3-methoxypicolinamide], the IC50 is 20 to 200 nM in test [1] (setting [5]) and above 200 nM in test [2] (setting [6]).
As to `Cc1cnc(-c2ccn3nc(N)nc3c2)nc1C(=O)N[C@H](C)c1cc(OC(F)(F)F)ccc1F` [Example 407, (R)-2-(2-amino-[1,2,4]triazolo[1,5-a]pyridin-7-yl)-N-(1-(2-fluoro-5-(trifluoromethoxy)phenyl)ethyl)-5-methylpyrimidine-4-carboxamide], the IC50 in test [1] (setting [5]) and in test [2] (setting [4]) was 20 to 200 nM each time.
In the case of `Cc1cnc(-c2ccn3nc(N)nc3c2)nc1C(=O)NCC[C@@H](O)c1ccc(Cl)cc1` [Example 408, (R)-2-(2-amino-[1,2,4]triazolo[1,5-a]pyridin-7-yl)-N-(3-(4-chlorophenyl)-3-hydroxypropyl)-5-methylpyrimidine-4-carboxamide], the IC50 in test [1] (setting [5]) and in test [2] (setting [4]) was 20 to 200 nM in each case.
For `Cc1cnc(-c2ccn3nc(N)nc3c2)nc1C(=O)N[C@H](C)c1cc(C(F)(F)F)ccc1F` [Example 409, (R)-2-(2-amino-[1,2,4]triazolo[1,5-a]pyridin-7-yl)-N-(1-(2-fluoro-5-(trifluoromethyl)phenyl)ethyl)-5-methylpyrimidine-4-carboxamide], the IC50 in test [1] (setting [5]) and in test [2] (setting [4]) was 20 to 200 nM throughout.
Take `Cc1cnc(-c2ccn3nc(N)nc3c2)nc1C(=O)NCC[C@H](O)c1ccc(Cl)cc1` [Example 410, (S)-2-(2-amino-[1,2,4]triazolo[1,5-a]pyridin-7-yl)-N-(3-(4-chlorophenyl)-3-hydroxypropyl)-5-methylpyrimidine-4-carboxamide]: the IC50 in test [1] (setting [5]) and in test [2] (setting [4]) was 20 to 200 nM in each case.
Consider `Cc1cnc(-c2ccn3nc(N)nc3c2)nc1C(=O)NCCC(C)c1ccccc1` (stereo not shown) [Example 411, 2-(2-amino-[1,2,4]triazolo[1,5-a]pyridin-7-yl)-5-methyl-N-(3-phenylbutyl)pyrimidine-4-carboxamide], for which the figures for the IC50 in test [1] (setting [5]) and in test [2] (setting [6]) were 20 to 200 nM and above 200 nM, respectively.
As for `Cc1ncc(-c2ccn3nc(N)nc3c2)cc1NC(=O)c1cnn(Cc2ccccc2)c1` [Example 412, N-(5-(2-amino-[1,2,4]triazolo[1,5-a]pyridin-7-yl)-2-methylpyridin-3-yl)-1-benzyl-1H-pyrazole-4-carboxamide], the IC50 in test [1] (setting [3]) is below 20 nM; in test [2] (setting [4]) it was 20 to 200 nM.
In the case of `COc1ncc(-c2ccn3nc(N)nc3c2)cc1NC(=O)Cc1cc(OC(F)(F)F)ccc1F` [Example 414, N-(5-(2-amino-[1,2,4]triazolo[1,5-a]pyridin-7-yl)-2-methoxypyridin-3-yl)-2-(2-fluoro-5-(trifluoromethoxy)phenyl)acetamide], the IC50 in test [1] (setting [3]) is below 20 nM; in test [2] (setting [4]) it was 20 to 200 nM.
As for `COc1ncc(-c2ccn3nc(N)nc3c2)cc1NC(=O)Cc1cccc(OC(F)(F)F)c1` [Example 415, N-(5-(2-amino-[1,2,4]triazolo[1,5-a]pyridin-7-yl)-2-methoxypyridin-3-yl)-2-(3-(trifluoromethoxy)phenyl)acetamide], the IC50 in test [1] (setting [5]) and in test [2] (setting [4]) was 20 to 200 nM each time.
For the compound `COc1ncc(-c2ccn3nc(N)nc3c2)cc1NC(=O)Cc1cccc(C(F)(F)F)c1` [Example 416, N-(5-(2-amino-[1,2,4]triazolo[1,5-a]pyridin-7-yl)-2-methoxypyridin-3-yl)-2-(3-(trifluoromethyl)phenyl)acetamide], the results for the IC50 in test [1] (setting [5]) and in test [2] (setting [6]) were 20 to 200 nM and above 200 nM, respectively.
Take `COc1ncc(-c2ccn3nc(N)nc3c2)cc1NC(=O)Cc1ccccc1OC(F)(F)F` [Example 417, N-(5-(2-amino-[1,2,4]triazolo[1,5-a]pyridin-7-yl)-2-methoxypyridin-3-yl)-2-(2-(trifluoromethoxy)phenyl)acetamide]: the figures for the IC50 in test [1] (setting [5]) and in test [2] (setting [6]) were 20 to 200 nM and above 200 nM, respectively.
In the case of `Cc1ncc(-c2ccn3nc(N)nc3c2)cc1NC(=O)c1cc(OC(F)(F)F)ccc1F` [Example 419, N-(5-(2-amino-[1,2,4]triazolo[1,5-a]pyridin-7-yl)-2-methylpyridin-3-yl)-2-fluoro-5-(trifluoromethoxy)benzamide], the IC50 was below 20 nM in test [1] (setting [3]) and above 200 nM in test [2] (setting [6]).
As for `Cc1ncc(-c2ccn3nc(N)nc3c2)cc1NC(=O)Cc1cc(OC(F)(F)F)ccc1F` [Example 420, N-(5-(2-amino-[1,2,4]triazolo[1,5-a]pyridin-7-yl)-2-methylpyridin-3-yl)-2-(2-fluoro-5-(trifluoromethoxy)phenyl)acetamide], the IC50 was below 20 nM in test [1] (setting [3]) and 20 to 200 nM in test [2] (setting [4]).
With `Cc1ncc(-c2ccn3nc(N)nc3c2)cc1C(=O)NCC(C)(O)Cc1ccc(F)cc1` (stereo not shown) [Example 421, 5-(2-amino-[1,2,4]triazolo[1,5-a]pyridin-7-yl)-N-(3-(4-fluorophenyl)-2-hydroxy-2-methylpropyl)-2-methylnicotinamide], the IC50 is 20 to 200 nM in test [1] (setting [5]) and above 200 nM in test [2] (setting [6]).
`Cc1ncc(-c2ccn3nc(N)nc3c2)cc1C(=O)N1CCCC(C(O)c2ccc(F)cc2)C1` (stereo not shown) [Example 423, (5-(2-amino-[1,2,4]triazolo[1,5-a]pyridin-7-yl)-2-methylpyridin-3-yl)(3-((4-fluorophenyl)(hydroxy)methyl)piperidin-1-yl)methanone]: the IC50 in test [1] (setting [7]) and in test [2] (setting [6]) was above 200 nM in each case.
Consider `COc1ncc(-c2ccn3nc(N)nc3c2)cc1C(=O)N1CCCC(Sc2ccccc2)C1` (stereo not shown) [Example 424, (5-(2-amino-[1,2,4]triazolo[1,5-a]pyridin-7-yl)-2-methoxypyridin-3-yl)(3-(phenylthio)piperidin-1-yl)methanone], for which the IC50 in test [1] (setting [5]) and in test [2] (setting [4]) was 20 to 200 nM each time.
For the compound `COc1ncc(-c2ccn3nc(N)nc3c2)cc1C(=O)N1CCOC(c2ccccc2)C1` (stereo not shown) [Example 425], the IC50 in test [1] (setting [7]) and in test [2] (setting [6]) was above 200 nM each time.
